According to patent US7977352B2, “Triazolopyridine compounds useful for the treatment of degenerative and inflammatory diseases” (Galapagos NV, priority 2006, dated 2011):

How the values were obtained:
TAK1-TAB1 fusion protein = target: T1, TAK1-TAB1 fusion protein (Homo sapiens, UniProt O43318); test: In vitro TAK1 kinase assay; assay type: biochemical; conditions: casein substrate, [33P]-γ-ATP, 90 minutes at 30° C., semi-quantitative score, read-out: POTENCY TAK1 (MAP3K7)
T1 construct: purchased Upstate 14-600
T1 sequence (O43318 with tags, fused parts or gaps limits assumed): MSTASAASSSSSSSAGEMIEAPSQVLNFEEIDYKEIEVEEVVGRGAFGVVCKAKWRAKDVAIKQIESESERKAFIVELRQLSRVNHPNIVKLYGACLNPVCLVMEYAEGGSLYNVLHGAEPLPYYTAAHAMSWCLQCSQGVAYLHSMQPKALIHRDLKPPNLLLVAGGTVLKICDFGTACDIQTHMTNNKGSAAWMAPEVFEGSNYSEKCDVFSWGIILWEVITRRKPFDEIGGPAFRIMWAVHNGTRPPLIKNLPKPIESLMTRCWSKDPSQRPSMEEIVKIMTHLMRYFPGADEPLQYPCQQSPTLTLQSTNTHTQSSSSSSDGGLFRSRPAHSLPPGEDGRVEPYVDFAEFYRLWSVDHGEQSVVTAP
Description: For assessing TAK1 inhibition, active TAK1-TAB1 fusion protein was used from Upstate (Cat. No, 14-600). Kinase reactions are set up in 96-well polypropylene plates in 25 μL containing 0.5 mU TAK1-TAB1 fusion protein, 5mM ATP, 0.01 μCi/μL [^33P]-γ-ATP, 0.1 mg/mL casein substrate in 1× reaction buffer containing 10 mM MOPS pH 7.0, 1 mM EDTA.
Starting from the compound master stocks (all at 10 mM concentration in 100% DMSO) a 3-fold serial dilution is made in 96-well plates in 100% DMSO. Plates are further diluted […] in H2O containing 3.5% DMSO, to obtain an intermediate work stock with compounds at 5× the final assay concentration in 5% DMSO.
5 μL of the intermediate stock is transferred into V-bottom 96 well polypropylene plates and 11 μL of Enzyme mix is added. Enzyme mix is made by combining 5 μL 5× reaction buffer ([…] pH 7.0, 1 mM EDTA), 5 μL casein (Sigma) diluted in H20 to 0.5 mg/mL and 1 μL of TAK1-TAB1 fusion protein that was prediluted to 0.5 mU/μL in 1× enzyme dilution buffer (20 mM MOPS pH 7.0, 0.1 mM EDTA, 0.01% Brij-35, 5% glycerol, 1 mM DTT, 1 mg/ml BSA).
The reactions are started by the addition of 9 μL of mixture containing ATP (20.83 uM) and [^33P]-γ-ATP (0.028 μCi/μL).
The assay is stopped 90 minutes after incubation at 30° C. by the addition of 25 μL phosphoric acid (150 mM). The label incorporated into the casein substrate is separated from labeled unincorporated ATP by filtration onto 96-well filter plates using a harvester device. After 6 washes with 75 mM phosphoric acid, the bottom of the filter plates are sealed, and incorporated label is quantified after addition of 40 μL scintillation fluid using TopCount.

[1] = system: MMP1 expression by activated synovial fibroblasts (RASFs); test: MMP assay: MMP1 expression by RASFs triggered with TNF-α (MMP1 ELISA); assay type: cell-based; conditions: Fibroblast, 48 h, TNF-α trigger 10 ng/mL, semi-quantitative score, read-out: REDUCTION MMP1/TNFa
Description: A 384-well format ELISA for measurement of MMP1 is developed. Various primary antibodies are tested, as well as various ELISA protocols. The following protocol is developed and validated to measure MMP1 levels in SF supernatant in 384 well plates: white Lumitrac 600 384 well plates (Greiner) are coated with 2 μg/mL anti-MMP1 antibody MAB1346 (Chemicon). The antibody is diluted in buffer 40 (1.21 g Tris base (Sigma), 0.58 g NaCl (Calbiochem) and 5 mL 10% NaN3 (Sigma) in 1 L milliQ water and adjusted to pH 8.5). After overnight incubation at 4° C., plates are washed with PBS (80 g NaCl, 2 g KCl (Sigma), 11.5 g Na2HPO4.7H2O and 2 g KH2PO4 in 10 L milliQ; pH 7.4) and blocked with 100 μL/well Casein buffer (2% Casein (VWR International) in PBS). Next day, casein buffer is removed from ELISA plates and replaced by 50 μL/well EC buffer (4 g casein, 2.13 g Na2HPO4 (Sigma), 2 g bovine albumin (Sigma), 0.69 g NaH2PO4.H2O (Sigma), 0.5 g CHAPS (Roche), 23.3 g NaCl, 4 mL 0.5 M EDTA pH 8 (Invitrogen), 5 mL 10% NaN3 in 1 L milliQ and adjusted to pH 7.0). 0.25 mM DTT (Sigma) is added to the thawed sample plates. After removal of the EC buffer, 20 μL of sample is transferred to the ELISA plates. After overnight incubation at 4° C. plates are washed twice with PBS and once with PBST (PBS with 0.05% Tween-20 (Sigma)) and incubated with 35 μL/well biotinylated anti-MMP1 antibody solution (R&D). This secondary antibody is diluted in buffer C (0.82 g NaH2PO4.H2O, 4.82 g Na2HPO4, 46.6 g NaCl, 20 g bovine albumin and 4 mL 0.5M EDTA pH 8 in 2 L milliQ and adjusted to pH 7.0) at a concentration of 5 μg/mL. After 2 h of incubation at RT, plates are washed as described above and incubated with 50 μL/well streptavidin-HRP conjugate (Biosource). Streptavidin-HRP conjugate is diluted in buffer C at a concentration of 0.25 μg/mL. After 45 min, plates are washed as described above and incubated for 5 min with 50 μL/well BM Chem ELISA Substrate (Roche). Readout is performed on the Luminoscan Ascent Luminometer (Labsystems) with an integration time of 200 msec or with an Envision reader (Perkin Elmer).
SFs were acquired at passage 1 from a commercial supplier (Cell applications, Inc.). SFs are cultured in DMEM supplemented with 10% heat-inactivated FBS, 1× penicillin/streptomycin (Invitrogen) at 37° C., 10% CO2 until passage 6. Aliquots of the cells are frozen and cryopreserved in liquid nitrogen. Starting from a cryopreserved aliquot, cells are further expanded by sub-culturing cells at 1/3 ratio every week. Cells between passage 10 and 12 are routinely used in compound testing according to following protocol.
Starting from the compound master stocks (all at 10 mM concentration in 100% DMSO) a 3-fold serial dilution is made in 96-well plates in 100% DMSO. Then, plates are further diluted 45-fold in M199 medium supplemented with 1% heat-inactivated FBS to obtain a intermediate work stock.
At day 1, RASFs are seeded in 96 well plates (flat bottom, tissue culture treated, Greiner) at a density of 3000 cells/well in complete synovial growth medium (Cell Applications). Day 5, the medium is completely removed from the cells, and replaced by 81 μL of M199 medium supplemented with 1% heat-inactivated FBS followed by addition of 10 μL compound out of the intermediate work stock. After an incubation period of 90 minutes, which allows the compounds to equilibrate and enter the cells, cells are stimulated with either TNF-α or ‘complex trigger’. TNF-α trigger is added in a volume of […] to obtain final concentration of 10 ng/mL. For that, TNF-α stock (PeproTech) at 10 μg/mL was diluted to 100 ng/mL TNF-a in M199 medium supplemented with 1% FBS. ‘Complex trigger’ mix is added in a volume of 20 μL to obtain a final concentration of 12.5%. For that, ‘complex trigger’ mix, is diluted to 80% with M199 medium supplemented with 1% FBS. […]

SMILES | IC50 (TAK1-TAB1 fusion protein) [nM] | IC50 [1] [nM]
C[C@@H]1CN(C)[C@@H](C)CN1c1ccc(Nc2ccc(-c3cc[nH]c(=O)c3)n3ncnc23)cc1 (racemic) [Example 10, rel-4-[8-({4-[(2R,5S)-2,4,5-trimethylpiperazin-1-yl]phenyl}amino)[1,2,4]triazolo[1,5-a]pyridin-5-yl]pyridin-2(1H)-one] | < 500 | 501 to 1000
C[C@@H]1CN(C)[C@@H](C)CN1c1ccc(Nc2ccc(-c3cc[nH]c(=O)c3)n3ncnc23)cc1F (relative stereo) [Example 11, rel-4-[8-({3-fluoro-4-[(2R,5S)-2,4,5-trimethylpiperazin-1-yl]phenyl}amino)[1,2,4]triazolo[1,5-a]pyridin-5-yl]pyridin-2(1H)-one] | < 500 | 1000 to 5000
C[C@@H]1CN(c2ccc(Nc3ccc(-c4cc[nH]c(=O)c4)n4ncnc34)cc2F)C[C@H](C)N1C [Example 9, 4-[8-({3-fluoro-4-[(3R,5S)-3,4,5-trimethylpiperazin-1-yl]phenyl}amino)[1,2,4]triazolo[1,5-a]pyridin-5-yl]pyridin-2(1H)-one] | 501 to 1000 | 1000 to 5000
CCN1CCN(c2ccc(Nc3ccc(-c4ccc(C(N)=O)cc4)n4ncnc34)cc2)CC1 [Example 12, 4-(8-{[4-(4-ethylpiperazin-1-yl)phenyl]amino}[1,2,4]triazolo[1,5-a]pyridin-5-yl)benzamide] | < 500 | < 500
CCCN1CCN(c2ccc(Nc3ccc(-c4ccc(C(N)=O)cc4)n4ncnc34)cc2)CC1 [Example 13, 4-(8-{[4-(4-propylpiperazin-1-yl)phenyl]amino}[1,2,4]triazolo[1,5-a]pyridin-5-yl)benzamide] | < 500 | > 10000
CC(C)CCN1CCN(c2ccc(Nc3ccc(-c4ccc(C(N)=O)cc4)n4ncnc34)cc2)CC1 [Example 15, 4-[8-({4-[4-(3-methylbutyl)piperazin-1-yl]phenyl}amino)[1,2,4]triazolo[1,5-a]pyridin-5-yl]benzamide] | < 500 | 1000 to 5000
NC(=O)c1ccc(-c2ccc(Nc3ccc(N4CCN(C5CCC5)CC4)cc3)c3ncnn23)cc1 [Example 16, 4-(8-{[4-(4-cyclobutylpiperazin-1-yl)phenyl]amino}[1,2,4]triazolo[1,5-a]pyridin-5-yl)benzamide] | < 500 | 5000 to 10000
NC(=O)c1ccc(-c2ccc(Nc3ccc(N4CCN(C5CC5)CC4)cc3)c3ncnn23)cc1 [Example 18, 4-(8-{[4-(4-cyclopropylpiperazin-1-yl)phenyl]amino}[1,2,4]triazolo[1,5-a]pyridin-5-yl)benzamide] | 1000 to 5000 | 1000 to 5000
O=c1cc(-c2ccc(Nc3ccc(N4CCN(C5CC5)CC4)cc3)c3ncnn23)cc[nH]1 [Example 23, 4-(8-{[4-(4-cyclopropylpiperazin-1-yl)phenyl]amino}[1,2,4]triazolo[1,5-a]pyridin-5-yl)pyridin-2(1H)-one] | < 500 | 1000 to 5000
O=c1cc(-c2ccc(Nc3ccc(N4CCN(C5CCC5)CC4)cc3)c3ncnn23)cc[nH]1 [Example 24, 4-(8-{[4-(4-cyclobutylpiperazin-1-yl)phenyl]amino}[1,2,4]triazolo[1,5-a]pyridin-5-yl)pyridin-2(1H)-one] | < 500 | 1000 to 5000
O=c1cc(-c2ccc(Nc3ccc(N4CCN(C5CCCCC5)CC4)cc3)c3ncnn23)cc[nH]1 [Example 25, 4-(8-{[4-(4-cyclohexylpiperazin-1-yl)phenyl]amino}[1,2,4]triazolo[1,5-a]pyridin-5-yl)pyridin-2(1H)-one] | < 500 | 1000 to 5000

More lines, main results first:

IC50 (TAK1-TAB1 fusion protein) [nM] | SMILES | IC50 [1] [nM]
< 500 | CCC(CC)N1CCN(c2ccc(Nc3ccc(-c4ccc(C(N)=O)cc4)n4ncnc34)cc2)CC1 [Example 14, 4-[8-({4-[4-(1-ethylpropyl)piperazin-1-yl]phenyl}amino)[1,2,4]triazolo[1,5-a]pyridin-5-yl]benzamide] | > 10000
< 500 | CCN1CCN(c2ccc(Nc3ccc(-c4cc[nH]c(=O)c4)n4ncnc34)cc2)CC1 [Example 19, 4-(8-{[4-(4-ethylpiperazin-1-yl)phenyl]amino}[1,2,4]triazolo[1,5-a]pyridin-5-yl)pyridin-2(1H)-one] | 1000 to 5000
< 500 | CCCN1CCN(c2ccc(Nc3ccc(-c4cc[nH]c(=O)c4)n4ncnc34)cc2)CC1 [Example 20, 4-(8-{[4-(4-propylpiperazin-1-yl)phenyl]amino}[1,2,4]triazolo[1,5-a]pyridin-5-yl)pyridin-2(1H)-one] | 1000 to 5000
< 500 | CCC(CC)N1CCN(c2ccc(Nc3ccc(-c4cc[nH]c(=O)c4)n4ncnc34)cc2)CC1 [Example 21, 4-[8-({4-[4-(1-ethylpropyl)piperazin-1-yl]phenyl}amino)[1,2,4]triazolo[1,5-a]pyridin-5-yl]pyridin-2(1H)-one] | > 10000
< 500 | CC(C)CCN1CCN(c2ccc(Nc3ccc(-c4cc[nH]c(=O)c4)n4ncnc34)cc2)CC1 [Example 22, 4-[8-({4-[4-(3-methylbutyl)piperazin-1-yl]phenyl}amino)[1,2,4]triazolo[1,5-a]pyridin-5-yl]pyridin-2(1H)-one] | 1000 to 5000
